The target of test [1] is T1, GST-JAK1(866-1154) (Homo sapiens, UniProt P23458).
T1 construct: GST-JAK1(866-1154); made in house
Description: EPK JAK-family kinases profiling assay (Caliper mobility shift), JAK1. Conditions: ATP 40 μM, 50 nM kinase. The class given is biochemical. An outline of the steps: (§1)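 Turnover was read as substrate/product ratio after mobility-shift capillary-like separation of each reaction, run for 60 min at 30 °C with GST-tagged kinase domain, labelled peptide and ATP, and terminated with EDTA stop buffer.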

The target in test [2] is T2, GST-JAK2(808-1132) (Homo sapiens, UniProt O60674).
T2 construct: GST-JAK2(808-1132); purchased Invitrogen (Carlsbad, USA) #4288
The test can be described thus: EPK JAK-family kinases profiling assay (Caliper mobility shift), JAK2. In kind it is biochemical. The following applies: ATP 20 μM, 1.8 nM kinase. An outline of the steps: as §1

For test [3], the target named is T3, GST-JAK3(811-1124) (Homo sapiens, UniProt P52333).
T3 construct: GST-JAK3(811-1124); made in house
Description: EPK JAK-family kinases profiling assay (Caliper mobility shift), JAK3. In kind it is biochemical. The following applies: ATP 80 μM, 6 nM kinase. An outline of the steps: as §1

The subject of test [4] is JAK/STAT pathway (JAK1/JAK2-dependent nuclear translocation of STAT1-GFP). The test can be described thus: Inhibition of the JAK/STAT pathway: IFN-γ stimulated nuclear translocation of STAT1-GFP in HT1080 fibrosarcoma cells. The following applies: Homo sapiens, HT-1080; HT1080 STAT1-GFP cells, 100 ng/ml IFN-γ 2 hours, compound added 30 min before; read-out: STAT1translo IC50. The class given is cell-based. An excerpt:
The medium-throughput (96-well format), robust and reproducible cellular assay can be routinely used to assess the functional activation of Janus Kinases (JAKs), based on the nuclear translocation of their substrate, Signal Transducer and Activator of Transcription (STAT). Nuclear translocation can be monitored in HT1080 fibrosarcoma cells stably transfected with STAT1 fused to Green Fluorescence Protein (GFP). Stimulation with interferon-γ (IFN-γ) results in JAK1/JAK2-dependent nuclear translocation of STAT1-GFP that can be quantified using the Cellomics Cyto/NucTrans software package. This assay may be used to provide an assessment of the nuclear-cytoplasmic differential (NCD) of GFP-STAT1 using Hoechst dye to define the boundaries of the nucleus.
Compounds can be dissolved in DMSO to a final stock concentration of 10 mM and stored as aliquots at 4° C. Compounds may be pre-diluted in 100% DMSO at 10 mM, 3 mM 1 mM, 0.3 mM, 0.1 mM, 0.03 mM, 0.01 mM and 0.003 mM. Subsequently, compounds may be diluted in medium and added in 50 μl to the cells. The final compound concentrations tested may be 10 μM, 3 μM 1 μM, 0.3 μM, 0.1 μM, 0.03 μM, 0.01 μM and 0.003 μM and the final DMSO concentration can be 0.1%.
The plates may then be washed once in PBS, and 200 μl PBS finally added per well. The plates, being finally covered with a black adhesive, may be either read directly or stored at 4° C. for later imaging. Where appropriate, the compounds may be added 30 min before stimulation with IFN-γ.
The plates can be read on a Cellomics® ArrayscanII automated fluorescence microscope plate reader equipped with a Mercury-Xenon white light illumination source and a Zeiss Axiovert inverted microscope, using the XF100 dichroic/emission filter cube and matching excitation filters, 10× magnification, and a 0.3 numerical aperture objective. Image acquisition and analysis can be performed using a customized protocol based on the ‘NuclearTranslocation’ Bioapplication (for details, see Appendices). For each well, multiple images (fields) can be acquired until a minimum of 1000 cells are counted using two 2 channels: Channel 1 (Hoechst)=focus+nuclear mask, Channel 2 (GFP)=signal quantification in mask areas as outlined below.
Nuclei may be first identified based on the Hoechst staining and a mask generated for each nucleus that then serves as a template to generate a circle (eroded inwards by 1 pixel) and a 3 pixel-wide collar-like ring (off-set outwards by 1 pixel), in which the nuclear and cytoplasmic intensity of GFP, respectively, are quantified in the corresponding channel. High content analysis yields numerous measurements per cell and the GPF intensity differential between the nuclear and the cytoplasmic masks may be chosen as a measure of sub-cellular GFP-STAT1 relocation. The resulting values may be averaged for all cells in the well to return a single measurement plus standard deviation.

A value given as a limit tells only on which side of the number the result lay.

T2 sequence (O60674 808-1132): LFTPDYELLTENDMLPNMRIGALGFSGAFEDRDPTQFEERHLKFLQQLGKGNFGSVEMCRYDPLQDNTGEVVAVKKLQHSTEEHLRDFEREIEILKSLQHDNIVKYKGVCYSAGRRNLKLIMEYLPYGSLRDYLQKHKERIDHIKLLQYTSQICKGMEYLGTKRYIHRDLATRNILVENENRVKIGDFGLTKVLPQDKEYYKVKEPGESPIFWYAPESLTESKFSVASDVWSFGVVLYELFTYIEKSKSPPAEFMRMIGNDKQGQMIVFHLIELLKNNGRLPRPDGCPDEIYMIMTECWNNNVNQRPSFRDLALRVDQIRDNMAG
T1 sequence (P23458 866-1154): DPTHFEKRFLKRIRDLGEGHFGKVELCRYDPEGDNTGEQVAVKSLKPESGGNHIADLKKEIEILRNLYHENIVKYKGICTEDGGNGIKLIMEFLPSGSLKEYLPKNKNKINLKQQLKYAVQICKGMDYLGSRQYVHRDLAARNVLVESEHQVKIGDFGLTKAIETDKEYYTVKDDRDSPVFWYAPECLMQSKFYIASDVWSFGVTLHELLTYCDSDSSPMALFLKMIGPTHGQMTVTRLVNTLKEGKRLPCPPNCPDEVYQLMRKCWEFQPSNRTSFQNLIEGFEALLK
T3 sequence (P52333 811-1124): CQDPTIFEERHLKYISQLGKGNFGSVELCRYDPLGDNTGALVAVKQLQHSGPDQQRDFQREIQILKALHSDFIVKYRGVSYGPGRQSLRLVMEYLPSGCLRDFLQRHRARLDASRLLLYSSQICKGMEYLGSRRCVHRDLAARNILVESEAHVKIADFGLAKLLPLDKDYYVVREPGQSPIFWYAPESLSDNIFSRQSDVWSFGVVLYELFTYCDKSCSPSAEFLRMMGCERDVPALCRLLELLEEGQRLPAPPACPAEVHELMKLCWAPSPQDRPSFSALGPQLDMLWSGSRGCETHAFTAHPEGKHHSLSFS

On to `Cc1cc(-c2cnc3cccc(-c4ccc(CN5CCOCC5)c(F)c4)c3n2)ccc1C(=O)N(C)C` [Example 56, 4-[8-(3-Fluoro-4-morpholin-4-ylmethyl-phenyl)-quinoxalin-2-yl]-2,N,N-trimethyl-benzamide], for which the IC50 in test [1] was determined as 150 nM; in test [2] it was 12 nM; in test [3] it was 570 nM; in test [4], 471 nM.

With `COCCOc1ccc(-c2cnc3cccc(-c4ccc(CC(=O)N5CCOCC5)c(F)c4)c3n2)cc1OC` [Example 49, 2-(2-Fluoro-4-{3-[3-methoxy-4-(2-methoxy-ethoxy)-phenyl]-quinoxalin-5-yl}-phenyl)-1-morpholin-4-yl-ethanone], the IC50 in test [1] was determined as 260 nM; in test [2], 38 nM; in test [3], 4400 nM; in test [4] it was 1220 nM.

Consider `COc1cc(-c2cnc3cccc(-c4ccc(NS(C)(=O)=O)cc4)c3n2)ccc1OCCN1CCOCC1` [Example 36, N-(4-{3-[3-Methoxy-4-(2-morpholin-4-yl-ethoxy)-phenyl]-quinoxalin-5-yl}-phenyl)-methanesulfonamide], for which the IC50 came out at 41 nM in test [1], 17 nM in test [2], 940 nM in test [3] and 3860 nM in test [4].

Turning to `COc1cc(-c2cnc3cccc(-c4ccc(C(=O)N5CCOCC5)c(Cl)c4)c3n2)cc(OC)c1OC` [Example 18, {2-Chloro-4-[3-(3,4,5-trimethoxy-phenyl)-quinoxalin-5-yl]-phenyl}-morpholin-4-yl-methanone], the IC50 came out at 230 nM in test [1], 38 nM in test [2], 2300 nM in test [3] and 340 nM in test [4].

Consider `Cc1cc(-c2cnc3cccc(-c4ccc(CC(=O)N5CCOCC5)c(F)c4)c3n2)ccc1OCCCN1CCOCC1` [Example 76, 2-(2-Fluoro-4-{3-[3-methyl-4-(3-morpholin-4-yl-propoxy)-phenyl]-quinoxalin-5-yl}-phenyl)-1-morpholin-4-yl-ethanone], for which the IC50 in test [1] turned out to be 690 nM; in test [2], 59.5 nM; in test [3], 4100 nM; in test [4], 5990 nM.

In the case of `Cc1cc(-c2cnc3cccc(-c4cc(F)c(CN5CCOCC5)c(F)c4)c3n2)ccc1C(=O)N1CCOCC1` [Example 59, {4-[8-(3,5-Difluoro-4-morpholin-4-ylmethyl-phenyl)-quinoxalin-2-yl]-2-methyl-phenyl}-morpholin-4-yl-methanone], the IC50 was 520 nM in test [1], 20 nM in test [2], 1950 nM in test [3] and 635 nM in test [4].

For the molecule `CCN1CCN(C(=O)c2ccc(-c3cnc4cccc(-c5cc(F)c(CN6CCOCC6)c(F)c5)c4n3)cc2C)CC1` [Example 82, {4-[8-(3,5-Difluoro-4-morpholin-4-ylmethyl-phenyl)-quinoxalin-2-yl]-2-methyl-phenyl}-(4-ethyl-piperazin-1-yl)-methanone], the IC50 was 490 nM in test [1], 14 nM in test [2], 1250 nM in test [3] and 946 nM in test [4].

Regarding `Cc1cc(-c2cnc3cccc(-c4ccc(CN5CCS(=O)(=O)CC5)c(F)c4)c3n2)ccc1C(=O)N(C)C` [Example 54, 4-{8-[4-(1,1-Dioxido-thiomorpholin-4-ylmethyl)-3-fluoro-phenyl]-quinoxalin-2-yl}-2,N,N-trimethyl-benzamide], the IC50 in test [1] is 17 nM; in test [2], < 3 nM; in test [3], 65 nM; in test [4] it was 140 nM.

As for `O=C(Cc1ccc(-c2cccc3ncc(-c4ccc(OCCCN5CCOCC5)cc4)nc23)cc1)N1CCOCC1` [Example 74, 1-Morpholin-4-yl-2-(4-{3-[4-(3-morpholin-4-yl-propoxy)-phenyl]-quinoxalin-5-yl}-phenyl)-ethanone], the IC50 in test [1] was 310 nM; in test [2], 25 nM; in test [3] it was 1300 nM; in test [4], 2610 nM.

As to `O=C(c1ccc(-c2cccc3ncc(-c4ccc(OCCCN5CCOCC5)cc4)nc23)cc1F)N1CCOCC1` [Example 75, (2-Fluoro-4-{3-[4-(3-morpholin-4-yl-propoxy)-phenyl]-quinoxalin-5-yl}-phenyl)-morpholin-4-yl-methanone], the IC50 is 410 nM in test [1], 34 nM in test [2], 1700 nM in test [3] and > 10000 nM in test [4].

Turning to `Cc1cc(-c2cnc3cccc(-c4ccc(CN5CCOCC5)c(F)c4)c3n2)ccc1C(=O)N1CCCC1` [Example 65, {4-[8-(3-Fluoro-4-morpholin-4-ylmethyl-phenyl)-quinoxalin-2-yl]-2-methyl-phenyl}-pyrrolidin-1-yl-methanone], the IC50 is 240 nM in test [1], 15.5 nM in test [2], 860 nM in test [3] and 2180 nM in test [4].

For the molecule `Cc1cc(-c2cnc3cccc(-c4ccc(CC(=O)N5CCS(=O)(=O)CC5)c(F)c4)c3n2)ccc1Cn1ccnc1` [Example 72, 1-(1,1-Dioxido-thiomorpholin-4-yl)-2-{2-fluoro-4-[3-(4-imidazol-1-ylmethyl-3-methyl-phenyl)-quinoxalin-5-yl]-phenyl}-ethanone], the IC50 amounted to 110 nM in test [1], 5.7 nM in test [2], 670 nM in test [3] and 1120 nM in test [4].

Consider `Cc1cc(-c2cccc3ncc(-c4ccc(N5CCOCC5)cc4)nc23)ccc1C(=O)N1CCOCC1` [Example 46, {2-Methyl-4-[3-(4-morpholin-4-yl-phenyl)-quinoxalin-5-yl]-phenyl}-morpholin-4-yl-methanone], for which the IC50 in test [1] worked out at 110 nM; in test [2], 20 nM; in test [3] it was 1600 nM; in test [4], 2820 nM.

For the molecule `O=C(Cc1ccc(-c2cccc3ncc(-c4ccc(N5CCOCC5)cc4)nc23)cc1)N1CCOCC1` [Example 45, 1-Morpholin-4-yl-2-{4-[3-(4-morpholin-4-yl-phenyl)-quinoxalin-5-yl]-phenyl}-ethanone], the IC50 in test [1] was found to be 190 nM; in test [2] it was 30 nM; in test [3] it was 2200 nM; in test [4], 2400 nM.

Take `O=C(c1ccc(-c2cccc3ncc(-c4ccc(OCCCN5CCOCC5)cc4)nc23)cc1F)N1CCS(=O)(=O)CC1` [Example 73, (1,1-Dioxido-thiomorpholin-4-yl)-(2-fluoro-4-{3-[4-(3-morpholin-4-yl-propoxy)-phenyl]-quinoxalin-5-yl}-phenyl)-methanone]: the IC50 in test [1] was 190 nM; in test [2], 28 nM; in test [3], 370 nM; in test [4] it was > 10000 nM.

Take `COCCOc1ccc(-c2cnc3cccc(-c4ccc(CN5CCS(=O)(=O)CC5)c(F)c4)c3n2)cc1OC` [Example 48, 8-[4-(1,1-Dioxido-thiomorpholin-4-ylmethyl)-3-fluoro-phenyl]-2-[3-methoxy-4-(2-methoxy-ethoxy)-phenyl]-quinoxaline]: the IC50 is 9.9 nM in test [1], < 3 nM in test [2], 77 nM in test [3] and 150 nM in test [4].

For the molecule `Cc1cc(-c2cnc3cccc(-c4cc(F)c(CN5CCOCC5)c(F)c4)c3n2)ccc1C(=O)N1CCCC1` [Example 66, {4-[8-(3,5-Difluoro-4-morpholin-4-ylmethyl-phenyl)-quinoxalin-2-yl]-2-methyl-phenyl}-pyrrolidin-1-yl-methanone], the IC50 came to 140 nM in test [1], 6.05 nM in test [2], 250 nM in test [3] and 1000 nM in test [4].
